Results taken from patent publication US20250152609A1, “SALICYLIC ACID COMPOSITIONS AND USES THEREOF” (priority 2022, published 2025).
Values after ≈ are worked out from the molar mass of the structure shown. Like-named read-outs stand apart in the source and are kept apart here.

Legend:
E. coli = test: In vitro antibacterial assay (MIC), E. coli growth in solution in 96-well plates, plate counting; assay type: cell-based; details: for MIC: Escherichia coli
Description: E. coli growth in solution was measured in 96-well plates. Absence and presence of different concentrations of the test agent during exponential growth determined the MIC (minimal inhibitory concentration) value. E. coli enumeration was by the plate-counting method (ufc) as described above.

[1] = tested on: E. coli CFT073 adhesion to human urinary bladder cells (T24); test: In vitro adhesion test (ADH): adhesion of E. coli to human bladder cells, cfu plate count; assay type: cell-based; details: for reduction of adhesion of E. coli CFT073 on urinary bladder cells: 1 h, adhesion <50% of control = significant, FIG. 1C
Description: In Vitro Adhesion Test (ADH)—Host-Pathogen-Interaction Assessed by In Vitro Adhesion to Human Cells Adhesion of E. coli to bladder epithelium was established in cell culture. Upon exposure to E. coli an epithelial cell detachment was observed, in a manner similar to in vivo exfoliation. The test was miniaturized by growing the epithelium cell cultures in 96-well plates instead of the classical 24-well plates.
The test samples were added prior to the start of the adhesion process. Bladder cells grown to confluence in 96-well plates were exposed to E. coli (50 μL of E. coli at 1.4*10^7 cfu/mL in each well) for 1 h. After 1 h, non-adhered E. coli were rinsed off and the adhered E. coli were detached and enumerated by plate counting colony-forming-units (cfu). Enumeration was automatized using a spiral plate count apparatus which further improved the test-variability.
The E. coli adhesion test was run in absence (given as 100% adhesion) and presence of different concentrations of the agents. […] Human cytotoxicity measurements of the mitochondrial activity (MTT) excluded side-effects of the agents.
Results are presented in FIG. 1C where relative adhesion (ADH) is expressed in percent (no inhibition control=100%; buffer was used instead of the treatments). All adhesion values<50% are defined as a significant inhibition.
Anti-adhesive effect is measured in vitro (standard method) using centrifuged extracts (Fu1) of Filipendula ulmaria (F) and Epilobium parviflorum (E) using human epithelial bladder cells (T24 ATCC® HTB-4™ Homo sapiens urinary bladder cell lines).

[2] = Analysis of salicylic acid and its metabolites in urines of treated mice (HPLC-MRM-MS); assay type: in vivo; details: for share of ingested SA found in the urines in this form: Filipendula ulmaria extract with 1.3% SA, total 40 mg in 8 doses over 24 h, oral
Description: A: Comparison of RT from analytical standards of salicylic acid (SA) (1) and its metabolites […] (DHBA) (2) and salicyluric acid (SUA) (3) and peaks found in urine samples collected from the group treated with Filipendula ulmaria extract (Fil). Analysis was performed on a SunFire™ C18 ([…], 3.0 mm×150 mm) column (Waters). 5% MeCN (A) and MeCN (B) both containing 0.1% of formic acid were used as mobile phase. A gradient of 0 to 100% B in 20 min was applied at a flow rate of 0.8 mL/min. B: Concentration, amounts (in samples collected over a 3-hour-period) and cumulative amounts of salicylic acid (SA) (1) and its metabolites 2,3-dihydroxybenzoic acid (DHBA) (2) and salicyluric acid (SUA) (3) found in urine samples collected from groups treated with Filipendula ulmaria extract (F). Cumulative amounts are the cumulated amounts of the respective compounds in the urine over time up to the indicated timepoint. Numbers on x-axis indicate collection time. Analysis was performed by HPLC-MRM-MS using the chromatographic conditions described in A.
The urines collected from control groups as described in Example 3 were compared against urines collected from mice treated with different combinations of plant extracts. The urines were analyzed using HPLC-UV/MS on a SunFire C18 column column. 5% MeCN (A) and MeCN (B) both containing 0.1% of formic acid were used as mobile phase. A gradient of 0 to 100% B in 20 min was applied at a flow rate of 0.8 mL/min. MS scans were recorded in positive and negative ion modes (ESI+/−). Major additional peaks in the groups treated with a mixture of Filipendula ulmaria-Epilobium parviflorum were identified as salicylic acid (SA) (1), 2,3-dihydroxybenzoic acid (DHBA) (2), and salicyluric acid (SUA) (3). FIG. 3A compares the RT from analytical standards of salicylic acid (SA) (1) and its metabolites salicyluric acid (SUA) ([…]) and 2,3-dihydroxybenzoic acid (DHBA) (2), and peaks found in urine samples collected from groups treated with Filipendula extracts. The exact mass of the three molecules was confirmed using high-resolution mass spectrometry. Further, the three identified metabolites were quantified in the urine samples by MRM—with the following transitions (m z): 136.5→65.0, 136.5→92.9 (SA); 152.9→108.9, 152.9→80.9 (DHBA); 194.0→150.0, 194.0→92.9 (SUA) and pure analytical standards that were diluted in urine from negative controls for the calibration curve.
The amounts of SA, SUA et DHBA were quantified in the urine of mice after absorption of an extract of Filipendula ulmaria containing 1.3% of SA at a total dose of 40 mg divided in 8 equal doses over 24 h as described above (Example 3, in-vivo efficacy studies).

E. coli CFT073 = test: In vivo UTI mouse model: living E. coli in bladder homogenates (bladder adhesion); design: species or system mice
Excerpt: (§1) An in vivo test of UTI (urinary tract infection) was established and implemented for the identification of active plant extracts and compounds. […] which were age matched females were adapted to the clean, non-septic laboratory conditions. The experiment started with a 2 days nutrition enriched by glucose in order to facilitate the subsequent UTI infection. Each compound, or plant extract was then applied at various concentrations by 8 consecutive intestinal ingestions by gavage-devices over the duration of 24 h. Each ingestion comprised a volume of 100 μL solution. During these 24 h the mice were hold in metabolic cages. The urine was collected every 3 h to analyze diuresis effects. For the subsequent UTI infection*, the isolate E. coli CFT073 (commercially available at DSM, originating from human UTI) was applied trans-urethral into the bladder and incubated in vivo for a 3 h duration and free movements in normal cages. Mice were euthanized and living E. coli were enumerated in bladder homogenates (homogenization of 12 bladder for living bacteria counting (cfu)), and organ morphology were assessed by histology microscopy. *UTI Infection with 50 μL of E. coli (CFT073) containing […] inoculated in the bladder (in another experiment, the in vivo infection was run similarly, but with slightly less germs 3.3×10^6 or 5×10^6 germs per inoculation).
The in-vivo anti-adhesion effect of the various substances and extracts of the invention were tested in vivo using a mouse model as described above by giving orally 100 μL of test substance every 3 hours for 24 h prior to inoculating E. coli in the bladder 3 h before measuring E. coli in the bladder. At the end of each assay, mice are euthanized, and their bladder homogenized for E. coli measurements.

[3] = Diuretic effects: urine collected over 24 h in the mouse model; assay type: in vivo; details: 68.8 μg/100 μL orally every 3 h; urine of 6 mice over 24 h
Excerpt: as §1, with “For the subsequent UTI infection*, the isolate E. coli CFT073 (commercially available at DSM, originating from human UTI) was applied trans-urethral into the bladder and incubated in vivo for a 3 h duration and free movements in normal cages.” left out
The urines were collected from control groups and from mice treated with different agents. […] Each value has been calculated from the total urine collected from 6 mice.

[4] = E. coli, 24 h exponential growth, pure substances and cranberry control
[5] = as given in the legend of FIG. 1F, read-out: prevention of growth of E. coli (MIC)
[6] = CHHeNCrL (so in the source); i.e. C3H/HeNCrl), mouse, in vivo

Compound	Observation of microbial culture (E. coli; 0.3125 mg/mL, 24 h)	Observation of microbial culture (E. coli; 0.625 mg/mL, 24 h)	Observation of microbial culture (E. coli; 1.25 mg/mL, 24 h)	Observation of microbial culture (E. coli; 2.5 mg/mL, 24 h)	Observation of microbial culture (E. coli; 5 mg/mL, 24 h)	MIC (minimal inhibitory concentration) (E. coli; [4])	MIC (E. coli; [5]) [µg/mL]	reduction of adhesion of E. coli CFT073 on urinary bladder cells ([1]; 2.5 mg/mL)	reduction of adhesion of E. coli CFT073 on urinary bladder cells ([1]; 5 mg/mL)	cumulated amounts present in the urine [2, 6] [µg]	share of ingested SA found in the urines in this form ([2]; mice) [%]	other results
O=C(O)c1cccc(O)c1O [2,3-Dihydroxybenzoic acid, 2,3-dihydroxybenzoic acid]	growth	growth *	no growth	no growth	no growth	MIC at 1.25 mg/mL	2500 (≈ 16.2 mM)	an effect	an effect	68	–	MIC (minimal inhibitory concentration) (E. coli; E. coli, 24 h exponential growth, pure substances and cranberry control, listed as 2): 5000 µg/mL (≈ 32.4 mM)
O=C(O[C@H]1[C@@H]2OC(=O)c3cc(O)c(O)c(O)c3-c3c4cc(c(O)c3O)Oc3c(cc(O)c(O)c3O)C(=O)O[C@H]3C(O)O[C@@H]5COC(=O)c6cc(O)c(O)c(O)c6-c6c(cc(c(O)c6O)Oc6c(cc(O)c(O)c6O)C(=O)O[C@H]1C(O)O[C@@H]2COC4=O)C(=O)O[C@H]5[C@@H]3OC(=O)c1cc(O)c(O)c(O)c1)c1cc(O)c(O)c(O)c1 (stereo partly shown) [Oenothein B]	–	–	–	–	–	MIC at 1.3 mg/mL	–	–	–	–	–	number of adhered bacteria E. coli lower than in the controls (E. coli CFT073; 0.065 mg/100 mL, inoculation 3.28×5×10^6 cfu): 75.12%; Observation of microbial culture (E. coli; 0.65 mg/mL): growth; Observation of microbial culture (E. coli; 1.3 mg/mL): no growth; Observation of microbial culture (E. coli; 1.9 mg/mL): no growth; Observation of microbial culture (E. coli; 2.6 mg/mL): no growth; Observation of microbial culture (E. coli; 3.25 mg/mL): no growth; MIC (E. coli; 24 h, read-out: MIC (minimal inhibitory concentration)): 1300 µg/mL (≈ 0.829 mM); MIC (E. coli; read-out: prevention of growth of E. coli (MIC)): 1300 µg/mL (≈ 0.829 mM); identification of the compound and its metabolites by LC-MS in the collected urine samples ([2]; mouse, in vivo, po): not identified
O=C(O)c1ccccc1O [Salicylic acid, salicylic acid]	growth	growth	growth	growth	no growth	MIC at 5 mg/mL	5000 (≈ 36.2 mM)	adhesion reduction efficacy	adhesion reduction efficacy	84	5.4	inhibitory effect on the bacterial infection (adhesion) (E. coli CFT073; 0.05 mg/100 μL by gavage 8 times in 24 h, 5×10^7 cfu E. coli trans-urethral, n=6 mice): −60%; inhibitory effect on the bacterial infection (adhesion) (E. coli CFT073; 3.3×10^6 cfu trans-urethral): −61.3%; MIC (E. coli; 24 h, E. coli, 24 h exponential growth, pure substances and cranberry control, read-out: MIC (minimal inhibitory concentration)): 5000 µg/mL (≈ 36.2 mM); reduction of adhesion of E. coli CFT073 on urinary bladder cells ([1]; 1.25 mg/mL): adhesion reduction efficacy; concentration necessary for inhibition of E. coli adhesion to human bladder epithelium ([1]; for 1 hour): 2.5 mg/mL
O=C(O)CNC(=O)c1ccccc1O [Salicyluric acid, salicyluric acid]	growth	growth	growth	growth *	no growth	MIC at 5 mg/mL	2500 (≈ 12.8 mM)	–	–	–	32.0	MIC (minimal inhibitory concentration) (E. coli; E. coli, 24 h exponential growth, pure substances and cranberry control, listed as 3): 1250 µg/mL (≈ 6.4 mM); cumulated amounts present in the urine ([2]; mice, FIG. 3B): 707 µg
quercetin-4′-O-glucoside [Spiraeoside]	–	–	–	–	–	–	–	–	–	–	–	% variation versus Negative Control (water), urine [3]: −9.10%; % variation versus Positive Control (Cranberry), urine [3]: −4.20%
